In US8236826B2, “Diarylether derivatives as antitumor agents” (Otsuka Pharmaceutical Co., Ltd., priority 2005, dated 2012):

What was measured:
[1] = system: human renal cancer cells (Caki-2); assay: Anti-proliferative effect on human renal cancer cells, sulforhodamine B method; assay type: cell-based; conditions: Caki-2 cells
[2] = system: human prostatic cancer cells (22Rv1); assay: Anti-proliferative effect on human prostatic cancer cells, sulforhodamine B method; assay type: cell-based; conditions: 22Rv1 cells
Text: (§1) Anti-proliferative effect of test compounds on human hepatic cancer cells (HuH-7), human lung cancer cells (EBC-1), human colorectal cancer cells (HCT116), human prostatic cancer cells (22Rv1), human pancreatic cancer cells (MIA PaCa-2), human stomach cancer cells (MKN45), human breast cancer cells (ZR-75-1) was checked by a sulforhodamine B method in accordance with Skehan P et al. (J. Natl. Cancer Inst. 1990 Jul. 4; 82(13): 1107-12). Explanation will be made taking HuH-7 cells as an example.
(§2) HuH-7 cells were seeded on DMEM medium (Dulbeco's modified Eagle Medium) containing 10% fetal bovine serum of a 96-well microplate and cultured at 37° C. for 24 hours in the presence of 5% carbon dioxide gas (CO2). Thereafter, a test compound was added to the wells and the cells were cultured for a further 5 days. […]
(§3) To each of the wells, a 1% aqueous acetic acid solution containing 0.4% sulforhodamine B was added and the wells were allowed to stand still at room temperature for 20 to 30 minutes. […] Subsequently, OD (optical density) was measured at a measurement wavelength of 492 nm and a reference wavelength of 690 nm to obtain the difference (A) in OD thus measured. Furthermore, the OD of a control well (containing no cells) was measured at a measurement wavelength of 492 nm and a reference wavelength of 690 nm to obtain the difference (B) in OD. […]

[3] = system: human multiple myeloma cells (IM-9); assay: Anti-proliferative effect on human multiple myeloma cells, MTT assay; assay type: cell-based; conditions: IM-9 cells
Description: [The source words this procedure for another cell line and reports this cell line under the same test.] (§4) Anti-proliferative effect of test compounds on human chronic myelogenous leukemia cells (KU812) was determined by an MTT assay in accordance with the method described in Singh A K et al. (Cancer Lett. 1996 Oct. 1; 107(1): 109-15). To describe more specifically, KU812 cells were seeded on RPMI 1640 medium containing 10% fetal bovine serum of a 96-well microplate, cultured at 37° C. for 24 hours in the presence of a 5% carbon dioxide gas (CO2). Thereafter, a test compound was added to the wells and the cells were cultured for a further 5 days. After the incubation, 10 μl of 5 mg/mL MTT ([…]) was added to the wells. After the cells were cultured for 4 hours, 100 μl of 0.01N HCl containing 10% SDS (sodium dodecyl sulfate) was added to the wells, which was further cultured overnight. Subsequently, OD was measured at a measurement wavelength of 570 nm and a reference wavelength of 690 nm to obtain the difference (A) in OD. Furthermore, OD of a control well (containing no cells) was measured at a measurement wavelength of 570 nm and a reference wavelength of 690 nm to obtain the difference (B) in OD. The difference (A−B) was regarded as the cell proliferation activity of each of the wells. […]

[4] = system: human hepatic cancer cells (HuH-7); assay: Anti-proliferative effect on human hepatic cancer cells, sulforhodamine B method; assay type: cell-based; conditions: 120 h, HuH-7 cells, cultured 5 days with compound
Text: as §1, §2, §3

[5] = system: human lymphoma cells (U937); assay: Cell proliferation suppression activity on human lymphoma cells, MTT assay; assay type: cell-based; conditions: applied dose 10 nM
Description: [The source words this procedure for another cell line and reports this cell line under the same test.] as §4

[6] = system: human lung cancer cells (EBC-1); assay: Anti-proliferative effect on human lung cancer cells, sulforhodamine B method; assay type: cell-based; conditions: EBC-1 cells
Text: as §1, §2, §3

[7] = system: human colorectal cancer cells (HCT116); assay: Anti-proliferative effect on human colorectal cancer cells, sulforhodamine B method; assay type: cell-based; conditions: HCT-116
Text: as §1, §2, §3

[8] = system: human pancreatic cancer cells (MIA PaCa-2); assay: Anti-proliferative effect on human pancreatic cancer cells, sulforhodamine B method; assay type: cell-based; conditions: MIA PaCa-2 cells
Text: as §1, §2, §3

[9] = system: human breast cancer cells (ZR-75-1); assay: Anti-proliferative effect on human breast cancer cells, sulforhodamine B method; assay type: cell-based; conditions: ZR-75-1 cells
Text: as §1, §2, §3

[10] = system: human acute myelogenous leukemia cells (KG-1); assay: Anti-proliferative effect on human acute myelogenous leukemia cells, MTT assay; assay type: cell-based; conditions: KG-1 cells
Description: [The source words this procedure for another cell line and reports this cell line under the same test.] as §4

[11] = system: Human hepatic cancer cells HuH-7; assay: Anti-tumor effect on HuH-7 cells transplanted into SCID mice; assay type: in vivo; conditions: 100 mg/kg/day orally once a day for 9 days, HuH-7 tumor in SCID mice
Description: Pharmacological Test 2 Anti-Cancer Effect […] on Hepatic Cancer Cells HuH-7
Human hepatic cancer cells HuH-7 were transplanted into SCID mice (a group of 6 female mice). Anti-tumor effect of test compounds according to the present invention was checked. To describe more specifically, the cancer cells were cultured in advance and a cell suspension solution containing the cancer cells in a concentration of 2.5×10^7 cells/mL was prepared. Then, 0.2 mL of the cell suspension solution was injected into the right axillary region of each of the mice to transplant the cancer cells. In this manner, cancer-bearing mice were prepared. […] Next day after completion of administration, the volume of a tumor was measured. The ratio in volume of a tumor at the time of grouping relative to that measured next day after completion of administration was calculated to obtain a relative tumor volume of each group. Then, the ratio (T/C %) in relative tumor volume of […] (administrated with a test compound) was calculated and used as an index of the effect. Relative tumor volume=tumor volume measured on the next day of completion of administration/tumor volume measured at the time of grouping (T/C %)=(an average value of relative tumor volume of test compound administration group)/(an average value of relative tumor volume of a control group)×100

[12] = system: human Burkitt's lymphoma cells (Daudi); assay: Cell proliferation suppression activity on human Burkitt's lymphoma cells, MTT assay; assay type: cell-based; conditions: applied dose 10 nM
Description: [The source words this procedure for another cell line and reports this cell line under the same test.] as §4

[13] = system: human stomach cancer cells (MKN45); assay: Anti-proliferative effect on human stomach cancer cells, sulforhodamine B method; assay type: cell-based; conditions: MKN-45
Text: as §1, §2, §3

[14] = system: human chronic myelogenous leukemia cells (KU812); assay: Anti-proliferative effect on human chronic myelogenous leukemia cells, MTT assay; assay type: cell-based; conditions: 120 h, cultured 5 days with compound
Description: as §4

| IC50 [1] [nM] | IC50 [2] [nM] | IC50 [3] [nM] | IC50 [4] [nM] | IC50 [6] [nM] | IC50 [7] [nM] | IC50 [8] [nM] | IC50 [9] [nM] | IC50 [10] [nM] | IC50 [13] [nM] | IC50 [14] [nM] | SMILES | U937 (T/C %) cell proliferation suppression activity [5] [%] | T/C % (relative tumor volume, test group vs control group) [11] [%] | Daudi (T/C %) cell proliferation suppression activity [12] [%] |
| --- | --- | --- | --- | --- | --- | --- | --- | --- | --- | --- | --- | --- | --- | --- |
| < 100 | < 100 | < 100 | < 100 | < 100 | < 100 | < 100 | < 100 | < 100 | < 100 | < 100 | Cc1cc(N(C)CC(=O)N2CCN(Cc3ccc4c(c3)OCO4)CC2)ccc1Oc1ccc(NC(=O)c2ccc(C(F)(F)F)cc2)cn1 [Example 1503, N-[6-(4-{[2-(4-piperonylpiperazin-1-yl)-2-oxoethyl]methylamino}-2-methylphenoxy)pyridin-3-yl]-4-trifluoromethylbenzamide] | <70 | <50 | <70 |
| < 100 | < 100 | < 100 | < 100 | < 100 | < 100 | < 100 | < 1000 | < 100 | < 100 | < 100 | O=C(Nc1ccc(Oc2ccc(CCC(=O)N3CCN(Cc4ccc5c(c4)OCO5)CC3)cc2)nc1)c1ccc(C(F)(F)F)cc1 [Example 1039, N-(6-{4-[3-(4-piperonylpiperazin-1-yl)-3-oxopropyl]phenoxy}pyridin-3-yl)-4-trifluoromethylbenzamide] | – | – | – |
